Results on 3 molecules are retold here after publication PMC10714399, “Open Source Antibiotics: Simple Diarylimidazoles Are Potent against Methicillin-Resistant Staphylococcus aureus” (ACS Infectious Diseases, 2023).

Data set [1] in a line: HEK293 toxicity, 96-well dose-response (UCL; MTT or resazurin, with or without recovery). The format is cell-based, human. As to conditions: human, HEK293 cells; read-out: HEK293 CC50. Put shortly: (§1)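 HEK293 cells seeded 48 h beforehand (700 cells for recovery runs, 5000 for non-recovery), then exposed 24 h to 2-fold dilutions from 32 μg/mL down to […] (1% DMSO top). Viability read by MTT or resazurin, either immediately or after 72 h recovery; Dmax = 100 − viability% at 32 μg/mL.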
On the technique in general: The colour change of resazurin is a common sign of viable cells or microbes.

A further data set relates to VSE. The experiment in a line: In vitro antibacterial activity, MIC, VSE. The format is cell-based.
The subject of the next data set is HEK293 cells. The experiment in a line: HEK293 toxicity, 96-well dose-response (UCL; MTT or resazurin, with or without recovery). The following applies: 32 μg/mL. It counts as cell-based, human. Put shortly: as §1

≈ marks a conversion by molar mass, not a printed value. Read-outs that look alike come from different tables or passages of the source.

In general, CC50 refers to the concentration at which the toxic effect on the cells reaches its halfway point. By MIC is commonly meant the smallest concentration in the dilution series that meets the test's criterion for growth inhibition. Regarding `c1ccc(-c2nc3n(c2-c2ccc4sccc4c2)CCC3)nc1` [OSA_000822], in data set [1], the CC50 at 24 h was determined as 2.9 µg/mL (≈ 9.14 µM). Further, the MIC in the data set with VSE (read-out: VSE MIC (UCL)) is 4 µg/mL (≈ 12.6 µM).

For `c1ccc(-c2nc3n(c2-c2ccc4occc4c2)CCC3)nc1` [compound 821], in data set [1], the CC50 at 24 h worked out at 1.7 µg/mL (≈ 5.64 µM). In addition, the “spread of Dmax values comparing recovery and non-recovery conditions” value with HEK293 cells is on record as “small difference”.

As for `c1ccc(-c2nc3n(c2-c2ccc4sccc4c2)CCC3)nc1` [compound 822], the “spread of Dmax values comparing recovery and non-recovery conditions” value in the data set with HEK293 cells is recorded as “small difference”. Further, in the data set with VSE (read-out: VSE MIC), the MIC was 4 µg/mL (≈ 12.6 µM).
